Assay results reported in patent US6982260B1, “Quinazolines and their use for inhibiting cyclin-dependent kinase enzymes” (Warner-Lambert Company, priority 1999, dated 2006).
Read-outs that look alike come from different tables or passages of the source.

Key:
neointima formation = conditions: intraluminal exposure of a denuded rat carotid artery; cited from earlier work
cdk2/A = cdk2/A (Homo sapiens, UniProt P24941); assay: cdk2/A kinase assay; type: biochemical; conditions: 32P incorporation into retinoblastoma, 25° C., 15 minutes; read-out: Cdk2A IC50
Protocol: (§1) All components except the ATP were added to the wells, and the plate was placed on a plate mixer for 2 minutes. The reaction was begun by addition of [^32P]ATP, and the plate was incubated at 25° C. for 15 minutes. The reaction was terminated by addition of 0.1 mL of 20% TCA. The plate was kept at 4° C. for at least 1 hour to allow the substrate to precipitate. The wells were then washed five times with 0.2 mL of 10% TCA and ^32P incorporation determined with a beta plate counter (Wallac Inc., Gaithersburg, Md.).

cdk2/cyclinE = cdk2/cyclinE (Homo sapiens, UniProt P24941); assay: cdk2/cyclinE kinase assay; type: biochemical; conditions: 32P incorporation into retinoblastoma, 25° C., 15 minutes; read-out: Cdk2E IC50
Protocol: as §1

cdk4/D = cdk4/D (Homo sapiens, UniProt P11802); assay: Cyclin-Dependent Kinase 4 (cdk4) Assay; type: biochemical
Protocol: As noted above, the compounds of this invention are potent inhibitors of cyclin-dependent kinases, and accordingly, are useful in treating and preventing neurodegenerative disorders, atherosclerosis, and other cell proliferative disorders like cancer. […] A typical assay, for instance, measures inhibitory activity against the cyclin D dependent kinase 4 enzyme (cdk4/D). […] The cdk4 assay was carried out as follows.
Cyclin-Dependent Kinase 4 (cdk4) Assay
Enzyme assays for IC50 determinations (Table 1 above) and kinetic evaluation were performed in 96 well filter plates (Millipore MADVN6550). The total volume was 0.1 mL containing a final concentration of 20 mM TRIS (tris[hydroxymethyl]aminomethane), at pH 7.4, 50 mM NaCl, 1 mM dithiothreitol, 10 mM MgCl2, 25 μM ATP containing 0.25 μCi of [^32P]ATP, 20 ng of cdk4, 1 μg of retinoblastoma, and appropriate dilutions of a compound of the present invention. All components except the ATP were added to the wells, and the plate was placed on a plate mixer for 2 minutes. The reaction was started by adding [^32P]ATP and the plate was incubated at 25° C. for 15 minutes. The reaction was terminated by addition of 0.1 mL of 20% trichloroacetic acid (TCA). The plate was kept at 4° C. for at least 1 hour to allow the substrate to precipitate. The wells were then washed five times with 0.2 mL of 10% TCA and ^32P incorporation was determined with a beta plate counter (Wallac Inc., Gaithersburg, Md.).

cdc2/cyclinB = cdc2/cyclinB (Homo sapiens, UniProt P06493); assay: cdc2/cyclinB kinase assay (Table 1, CdkB); type: biochemical; conditions: 32P incorporation into retinoblastoma, 25° C., 15 minutes
Protocol: as §1

[1] = system: herpes simplex virus (HSV); conditions: cited from earlier work

Sequence of cdc2/cyclinB (P06493 whole entry, species assumed): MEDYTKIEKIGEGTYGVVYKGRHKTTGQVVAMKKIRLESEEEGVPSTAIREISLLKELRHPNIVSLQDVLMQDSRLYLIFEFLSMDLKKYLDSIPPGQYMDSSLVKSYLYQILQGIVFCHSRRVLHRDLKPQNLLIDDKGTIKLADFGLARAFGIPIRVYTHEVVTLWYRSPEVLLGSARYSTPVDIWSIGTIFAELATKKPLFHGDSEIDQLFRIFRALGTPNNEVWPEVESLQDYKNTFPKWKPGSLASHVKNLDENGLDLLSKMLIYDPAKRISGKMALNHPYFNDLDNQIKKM
Sequence of cdc2/cyclinB (P14635 whole entry partner, species assumed): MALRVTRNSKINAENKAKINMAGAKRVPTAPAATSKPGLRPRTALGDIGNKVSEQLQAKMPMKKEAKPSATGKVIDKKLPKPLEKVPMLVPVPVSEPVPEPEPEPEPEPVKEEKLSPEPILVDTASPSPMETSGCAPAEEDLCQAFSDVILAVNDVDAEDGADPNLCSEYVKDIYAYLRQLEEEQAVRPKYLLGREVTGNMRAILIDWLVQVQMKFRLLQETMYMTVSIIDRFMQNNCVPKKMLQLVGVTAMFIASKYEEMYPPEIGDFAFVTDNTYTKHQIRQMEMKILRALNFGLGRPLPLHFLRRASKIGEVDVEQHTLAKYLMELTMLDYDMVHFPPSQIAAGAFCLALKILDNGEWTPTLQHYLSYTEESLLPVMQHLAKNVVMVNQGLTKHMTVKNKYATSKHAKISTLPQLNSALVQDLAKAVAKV
Sequence of cdk4/D (P11802 whole entry, species assumed): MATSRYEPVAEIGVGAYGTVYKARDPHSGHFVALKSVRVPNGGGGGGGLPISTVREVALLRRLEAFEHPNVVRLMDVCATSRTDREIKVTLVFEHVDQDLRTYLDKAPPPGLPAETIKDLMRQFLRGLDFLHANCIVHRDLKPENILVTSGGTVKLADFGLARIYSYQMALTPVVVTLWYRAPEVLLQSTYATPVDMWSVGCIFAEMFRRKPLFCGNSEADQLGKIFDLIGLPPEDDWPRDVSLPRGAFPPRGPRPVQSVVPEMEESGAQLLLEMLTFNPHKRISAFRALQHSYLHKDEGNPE
Sequence of cdk4/D (P24385 whole entry partner, species assumed): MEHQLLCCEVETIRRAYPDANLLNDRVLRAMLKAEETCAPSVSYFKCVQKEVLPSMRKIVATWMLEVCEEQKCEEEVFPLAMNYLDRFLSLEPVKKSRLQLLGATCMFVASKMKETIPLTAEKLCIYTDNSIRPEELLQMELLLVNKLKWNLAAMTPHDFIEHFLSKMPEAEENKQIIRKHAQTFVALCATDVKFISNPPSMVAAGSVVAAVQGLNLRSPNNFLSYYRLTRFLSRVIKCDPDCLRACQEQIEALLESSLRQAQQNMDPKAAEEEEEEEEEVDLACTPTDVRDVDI

SMILES | inhibition of neointima formation (neointima formation) | IC50 (cdk2/A) | IC50 (cdk2/cyclinE) | IC50 (cdk4/D; 25 μM ATP, retinoblastoma substrate, 25° C., 15 minutes, read-out: Cdk4 IC50) | IC50 (cdc2/cyclinB) | melting point | IC50 (cdk4/D) | HSV replication [1]
COc1ccc(CNc2nc(N(CCO)CCO)nc3c2ncn3C(C)C)cc1 [CVT-313] | greater than 80% |  |  |  |  |  |  | 
COc1ccc2cnc(Nc3ccc(N4CCOCC4)c(F)c3)nc2c1C1CCCC1 [Example 43, (8-Cyclopentyl-7-methoxy-quinazolin-2-yl)-(3-fluoro-4-morpholin-4-yl-phenyl)-amine] |  | 0.966 µM | > 5 µM | 0.07 µM | > 5 µM | 252 to 253 °C |  | 
COc1ccc2cnc(Nc3ccc(N4CCN(C(=O)CN)CC4)cc3)nc2c1C(C)C [Example 35, 2-Amino-1-{4-[4-(8-Isopropyl-7-methoxy-quinazolin-2-ylamino)-phenyl]-piperazin-1-yl}-ethanone] |  | 0.191 µM | 1.1 µM |  | 0.8 µM | 183 to 185 °C | 0.01 µM | 
CC[C@H](CO)Nc1nc(NCc2ccccc2)c2ncn(C(C)C)c2n1 [roscovitine] |  |  |  |  |  |  |  | inhibited
COc1ccc2cnc(Nc3ccc(N4CCCCC4)cc3)nc2c1C1CCCC1 [Example 23, (8-Cyclopentyl-7-methoxy-quinazolin-2-yl)-(4-piperidin-1-yl-phenyl)-amine] |  | 0.384 µM | > 5 µM |  | > 5 µM | 212 to 214 °C | 0.011 µM | 
